How the values were obtained:
[1] = test system: cathepsins B and L (SmCatB/L); test: Protease activity in extracts of adult worms treated with gallinamides, Cbz–Phe–Arg–AMC; assay type: cell-based, S. mansoni; settings: adult worms incubated with 5 μM compound for 24 h (Figure 2 legend: 48 h); extract assayed with Cbz–Phe–Arg–AMC at pH 5.5
Protocol: Adult mixed sex S. mansoni were incubated in the presence of 5 μM gallinamide A, 1, 6, or 9 for 24 h, and protein extracts therefrom were assayed with the cathepsins B and L substrate, Cbz–Phe–Arg–AMC. Protease activity was reduced by ∼95% relative to the activity of untreated controls (Figure 2A). For comparison, we also quantified the activity of the nondigestive proteolytic enzyme, S. mansoni prolyl oligopeptidase (SmPOP). This serine protease, which is localized in the tegument of adult worms, was assayed with the selective substrate Cbz–Gly–Pro–AMC.[44] SmPOP was unaffected by the gallinamide treatment.
Figure 2 SmCB1 is a target for gallinamides in adult S. mansoni. (A) Mixed sex, adult S. mansoni were incubated for 48 h with 5 μM gallinamide A or 1, 6, and 9. After washing and preparation of worm extract, proteolytic activities (0.2 μg of protein) were measured in a kinetic assay using the cathepsin B and L substrate, Cbz–Phe–Arg–AMC (SmCatB/L, gray bars) at pH 5.5 or the prolyl oligopeptidase substrate, Cbz–Gly–Pro–AMC (SmPOP, white bars) at pH 8.0. Means ± SE of three replicates are normalized to the control not exposed to the inhibitor (set as 100%). (B–D) Imaging of SmCB1 using the gallinamide compound 5 as an activity-based probe. 5 contains an alkyne tag that can be modified by a copper-catalyzed click reaction with a fluorescent reagent (Alexa Fluor 647-azide) (B). Recombinant SmCB1 (rSmCB1, 0.5 μg) (C) or extracts of adult S. mansoni worms (7 μg of protein) (D) were incubated with 5 (10 μM) for 1 h and then clicked. Reactions were resolved by SDS-PAGE, and gels were visualized using a fluorescence scanner (Probe), stained for protein using Coomassie Brilliant Blue (CBB), or analyzed by Western blot with an anti-SmCB1 antibody (WB). In a control experiment, rSmCB1 or worm extract was treated with the […] protease inhibitor E-64 (10 μM), prior to incubation with 5. The positions of rSmCB1, native SmCB1, and its pro-form (pro-SmCB1) are indicated. The mass difference between rSmCB1 and native SmCB1 is caused by glycosylation (see Methods). The active site of the pro-SmCB1 is shielded by a propeptide[45] that prevents effective binding of 5. […]
Proteolytic activities in S. mansoni adult extracts were measured in a continuous kinetic assay using the following peptidyl fluorogenic substrates (Bachem) or internally quenched FRET substrates (IOCB): 50 μM Cbz–Phe–Arg–AMC for cathepsins B and L,[13],[15] […] Substrate hydrolysis was measured continuously using an Infinite M1000 microplate reader (Tecan) at excitation and emission wavelengths of 360/465 nm for AMC substrates and 320/420 nm for FRET substrates. […]

[2] = test system: S. mansoni newly transformed schistosomula (NTS); test: Phenotypic screen with newly transformed schistosomula (NTS); assay type: cell-based
Protocol: The same 19 gallinamides were screened for bioactivity against S. mansoni newly transformed schistosomula (NTS), the postinvasive parasite stage that feeds on host blood.[40] In this primary assay, the NTS were exposed to 1 and 10 μM compounds for 3 days, and the resulting phenotypic responses were graded from 0 through 4, i.e., the least to the most severe (Table 2 and Table S1). […] The effects were more pronounced after 72 h, and when the higher, 10 μM, compound concentration was used (Table S1). […] Also, compared to gallinamide A and its analogs, 3 has an additional N-terminal N-acetamide modification that further reduces bioactivity (Table 2).
Phenotypic screens employed S. mansoni newly transformed schistosomula (NTS) and adults and were carried out as described previously.[18]−[20],[42] NTS were prepared by mechanically transforming infective larvae (cercariae).[40],[42] NTS (200–300 parasites) were incubated in flat-bottomed 96-well plates in 200 μL of Basch Medium 169 containing 5% (v/v) FBS, 100 U mL^–1 penicillin and 100 μg mL^–1 streptomycin (complete Basch medium)[75] at 5% CO2 and 37 °C.[76],[77] Inhibitors were added at final concentrations of 1 and 10 μM, and changes in phenotypes were observed under an inverted microscope every 24 h for up to 72 h.
A constrained nomenclature of “descriptors”[39],[42] was used to record the multiple and dynamic changes in movement, shape, and translucence that the schistosome parasite is capable of (Table S1 for NTS and Table S3 for adults). These descriptors were then converted into an ordinal “severity score” system ranging from 0 (no effect) to 4 (maximum effect), which allows for the relative comparison of compound effects.

[3] = 1 μM compound, 24 h, scale 0 (no effect) to 4 (most severe)
[4] = 1 μM compound, 48 h, scale 0 to 4
[5] = 1 μM compound, 72 h, scale 0 to 4
[6] = 10 µM compound, 24 h, scale 0 to 4
[7] = 10 µM compound, 48 h, scale 0 to 4
[8] = 10 µM compound, 72 h, scale 0 to 4

Row | Compound | protease activity reduced relative to untreated controls [1] | schistosomula severity score [2, 3] | schistosomula phenotype descriptors ([2]; 1 µM compound, 48 h) | schistosomula severity score [2, 4] | schistosomula severity score [2, 5] | schistosomula severity score [2, 6] | schistosomula severity score [2, 7] | schistosomula severity score [2, 8] | schistosomula phenotype descriptors ([2]; 1 µM compound, 24 h) | schistosomula phenotype descriptors ([2]; 10 µM compound, 24 h)
1 | CC[C@H](C)[C@@H](C(=O)O[C@@H](CC(C)C)C(=O)N[C@@H](CC(C)C)C(=O)N[C@@H](C)/C=C/C(=O)N1C(=O)C=C(OC)[C@@H]1C)N(C)C [gallinamide A] | ~95% | 1 | Dark, R | 2 | 4 | 4 | 4 | 4 | – | –
2 | CCC(C)C(C(=O)OC(CC(C)C)C(=O)NC(CC(C)C)C(=O)NC(C)C=CC(=O)N1C(=O)C=C(OC)C1CC(C)C)N(C)C (stereo not drawn) [compound 1] | ~95% | 2 | – | 4 | 4 | 4 | 4 | 4 | R, unc | –
3 | CCC(C)C(C(=O)OC(CC(C)C)C(=O)NC(CC(C)C)C(=O)NC(C)C=CC(=O)N1C(=O)C=C(OC)C1Cc1ccccc1)N(C)C (stereo not drawn) [compound 9] | ~95% | 1 | Dark, R | 2 | 4 | 3 | 4 | 4 | – | Dark, R, S
4 | COC1=CC(=O)N(C(=O)/C=C/[C@H](C)NC(=O)[C@H](CC(C)C)NC(=O)[C@H](CC(C)C)OC(=O)[C@H](Cc2ccccc2)N(C)C)[C@H]1Cc1ccccc1 [compound 6] | ~95% | 2 | – | 4 | 4 | 4 | 4 | 4 | R, unc | –

Source: publication PMC11184554, “Nature-Inspired Gallinamides Are Potent Antischistosomal Agents: Inhibition of the Cathepsin B1 Protease Target and Binding Mode Analysis” (ACS Infectious Diseases, 2024)
